Test results published in ChEMBL document CHEMBL1201862, “PubChem BioAssay data set” (2004).
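A five-concentration, 48-hour dose response in 96-well plates underlies each endpoint, interpolated linearly between surrounding concentrations. Abbreviation: GI50, concentration required for 50% inhibition of growth.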 The source made the active and inactive calls. Rule as the data show it: active = GI50 up to about 1.1 µM and inactive = higher.

Tests used:
Assay in all cases: inhibition of tumour cell growth, NCI panel, 48 h
[1] = tested on: UACC-62
[2] = tested on: RPMI-8226
[3] = tested on: OVCAR-5
[4] = tested on: Hs-578T
[5] = tested on: SK-MEL-5
[6] = tested on: NCI-H226
[7] = tested on: HCT-15
[8] = tested on: MDA-N
[9] = tested on: MDA-MB-435
[10] = tested on: NCI-H522
[11] = tested on: OVCAR-4
[12] = tested on: CAKI-1
[13] = tested on: CCRF-CEM
[14] = tested on: SF-268
[15] = tested on: HCC 2998
[16] = tested on: TK-10
[17] = tested on: K562
[18] = tested on: SK-OV-3
[19] = tested on: U-251
[20] = tested on: LOX IMVI

| Structure (SMILES) | GI50 [1] | GI50 [2] | GI50 [3] | GI50 [4] | GI50 [5] | GI50 [6] | GI50 [7] [µM] | GI50 [8] | GI50 [9] | GI50 [10] | GI50 [11] | GI50 [12] | GI50 [13] | GI50 [14] | GI50 [15] | GI50 [16] | GI50 [17] | GI50 [18] | GI50 [19] | GI50 [20] |
| --- | --- | --- | --- | --- | --- | --- | --- | --- | --- | --- | --- | --- | --- | --- | --- | --- | --- | --- | --- | --- |
| COC(=O)c1ccc(Oc2nc3ccc(C(F)(F)F)cc3nc2-c2ccccc2)cc1 | > 100 µM (inactive) | 62.8 µM (inactive) | > 100 µM (inactive) | > 100 µM (inactive) | > 100 µM (inactive) | > 100 µM (inactive) | > 100 | > 100 µM (inactive) | > 100 µM (inactive) | 94.6 µM (inactive) | > 100 µM (inactive) | > 100 µM (inactive) | > 100 µM (inactive) | > 100 µM (inactive) | > 100 µM (inactive) | > 100 µM (inactive) | 60.8 µM (inactive) | > 100 µM (inactive) | > 100 µM (inactive) | > 100 µM (inactive) |
| COc1ccc(Cn2c3ccc([N+](=O)[O-])cc3c(=O)n2Cc2ccccn2)cc1 | 43.9 µM (inactive) | 34.5 µM (inactive) | > 100 µM (inactive) | > 100 µM (inactive) | 24.9 µM (inactive) | > 100 µM (inactive) | > 100 | 40.6 µM (inactive) | 76.4 µM (inactive) | 66.4 µM (inactive) | 56.1 µM (inactive) | > 100 µM (inactive) | 62.5 µM (inactive) | > 100 µM (inactive) | > 100 µM (inactive) | > 100 µM (inactive) | 67 µM (inactive) | > 100 µM (inactive) | > 100 µM (inactive) | 78.2 µM (inactive) |
| C[C@@H](c1ccccc1)N(CC#N)[C@H]1CCC[C@]1(O)/C=C/c1ccc2c(c1)OCO2 | 3.59 µM (inactive) | > 25 µM (inactive) | > 25 µM (inactive) | > 25 µM (inactive) | > 25 µM (inactive) | > 25 µM (inactive) | > 25 | > 25 µM (inactive) | > 25 µM (inactive) | > 25 µM (inactive) | > 25 µM (inactive) | > 25 µM (inactive) | > 25 µM (inactive) | > 25 µM (inactive) | > 25 µM (inactive) | > 25 µM (inactive) | > 25 µM (inactive) | > 25 µM (inactive) | > 25 µM (inactive) | > 25 µM (inactive) |
| Cc1ccc(S(=O)(=O)Oc2coc(CO)cc2=O)cc1 | 11.9 µM (inactive) | 3.97 µM (inactive) | 17.8 µM (inactive) | 19.5 µM (inactive) | 13.5 µM (inactive) | 33.1 µM (inactive) | 13.3 | 8.02 µM (inactive) | 6.85 µM (inactive) | 1.76 µM (inactive) | 15.1 µM (inactive) | 4.42 µM (inactive) | 3.08 µM (inactive) | 9.42 µM (inactive) | 13.7 µM (inactive) | 17.5 µM (inactive) | 6.04 µM (inactive) | 17.1 µM (inactive) | 9.84 µM (inactive) | 3.05 µM (inactive) |
| Cc1ccnc2nc(-c3ccc(Cl)cc3)cc(O)c12 | 3.01 µM (inactive) | 2.94 µM (inactive) | > 100 µM (inactive) | 3.9 µM (inactive) | 3.13 µM (inactive) | 5.16 µM (inactive) | 2.32 | 0.752 µM (active) | 0.578 µM (active) | 2.58 µM (inactive) | > 23.8 µM (inactive) | 6.68 µM (inactive) | 4.63 µM (inactive) | 28.4 µM (inactive) | > 27.4 µM (inactive) | > 60.5 µM (inactive) | 1.89 µM (inactive) | 3.86 µM (inactive) | 4.07 µM (inactive) | 4.13 µM (inactive) |
| C[C@@H]1C[C@@]2(O[C@@H]2C)C(=O)O[C@@H]2CCN3CC=C(COC(=O)[C@]1(C)O)[C@H]23 | > 100 µM (inactive) | > 100 µM (inactive) | > 100 µM (inactive) | > 100 µM (inactive) | > 100 µM (inactive) | > 100 µM (inactive) | > 100 | > 100 µM (inactive) | > 100 µM (inactive) | > 100 µM (inactive) | > 100 µM (inactive) | > 100 µM (inactive) | > 100 µM (inactive) | > 100 µM (inactive) | > 100 µM (inactive) | > 100 µM (inactive) | > 100 µM (inactive) | > 100 µM (inactive) | > 100 µM (inactive) | > 100 µM (inactive) |
| N#Cc1cnn2c1n[n+]([O-])c1ccc(Cl)cc12 | 4.49 µM (inactive) | 23.8 µM (inactive) | > 45.1 µM (inactive) | 5.3 µM (inactive) | 12.4 µM (inactive) | 18.6 µM (inactive) | 1.97 | 8.65 µM (inactive) | 11.9 µM (inactive) | 1.75 µM (inactive) | 2.23 µM (inactive) | 1.26 µM (inactive) | 1.75 µM (inactive) | 9.73 µM (inactive) | 1.92 µM (inactive) | 57.8 µM (inactive) | 1.71 µM (inactive) | 8.61 µM (inactive) | 17 µM (inactive) | 3.98 µM (inactive) |
| COc1ccc2c(c1)CN([C@@H](C)[C@H]1CC[C@H]3[C@@H]4CC[C@H]5C[C@@H](O)CC[C@]5(C)[C@H]4CC[C@]13C)CO2 | 2 µM (inactive) | 0.541 µM (active) | 3.13 µM (inactive) | 1.61 µM (inactive) | 1.69 µM (inactive) | 7.36 µM (inactive) | 1.32 | 1.7 µM (inactive) | 1.75 µM (inactive) | 1.95 µM (inactive) | 4.05 µM (inactive) | 4.75 µM (inactive) | 1.85 µM (inactive) | 2.26 µM (inactive) | 1.61 µM (inactive) | 2.79 µM (inactive) | 0.787 µM (active) | 1.7 µM (inactive) | 1.62 µM (inactive) | 1.58 µM (inactive) |
| CCCCCCCCCCCCC/C=C(/COCC[N+](C)(C)C)OC(C)=O.CCCCCCCCCCCCCC/C(=C/OCC[N+](C)(C)C)OC(C)=O | 1.74 µM (inactive) | 1.3 µM (inactive) | 2.44 µM (inactive) | 1.91 µM (inactive) | 2.54 µM (inactive) | 1.57 µM (inactive) | 3.43 | 3.07 µM (inactive) | 2.58 µM (inactive) | 1.87 µM (inactive) | 1.95 µM (inactive) | 1.58 µM (inactive) | 1.76 µM (inactive) | 1.87 µM (inactive) | 4.04 µM (inactive) | 1.48 µM (inactive) | 1.71 µM (inactive) | 4.63 µM (inactive) | 1.19 µM (inactive) | 0.377 µM (active) |
| Cc1ccc(NC(=S)N/N=C2\C(=O)Nc3ccccc32)cc1 | > 100 µM (inactive) | > 100 µM (inactive) | > 100 µM (inactive) | > 100 µM (inactive) | 59.7 µM (inactive) | 92.3 µM (inactive) | > 100 | > 100 µM (inactive) | > 100 µM (inactive) | > 100 µM (inactive) | > 100 µM (inactive) | > 100 µM (inactive) | 72.1 µM (inactive) | 1.69 µM (inactive) | > 100 µM (inactive) | > 100 µM (inactive) | > 100 µM (inactive) | > 100 µM (inactive) | > 100 µM (inactive) | 66.5 µM (inactive) |
| c1ccc2c(c1)-c1ccccc1C2NC1=NCCO1 | 20.5 µM (inactive) | 28.4 µM (inactive) | 38.8 µM (inactive) | 55 µM (inactive) | 15.7 µM (inactive) | 23.8 µM (inactive) | 9.4 | 11.8 µM (inactive) | 23 µM (inactive) | 25.6 µM (inactive) | 25.2 µM (inactive) | 28.5 µM (inactive) | 32.6 µM (inactive) | 30 µM (inactive) | 15.6 µM (inactive) | 28.1 µM (inactive) | 32.8 µM (inactive) | 31.4 µM (inactive) | 31.3 µM (inactive) | 20.5 µM (inactive) |
| CC1=NN(C(=O)CC(=O)Nc2cccc(Cl)c2)C(=O)C1/N=N\c1ccc(S(=O)(=O)c2ccc(/N=N/C3C(=O)N(C(=O)CC(=O)Nc4cccc(Cl)c4)N=C3C)cc2)cc1 (centres undefined) | > 100 µM (inactive) | > 100 µM (inactive) | > 100 µM (inactive) | > 100 µM (inactive) | 40.8 µM (inactive) | > 100 µM (inactive) | > 100 | > 100 µM (inactive) | > 100 µM (inactive) | > 100 µM (inactive) | > 100 µM (inactive) | > 100 µM (inactive) | > 100 µM (inactive) | > 100 µM (inactive) | > 100 µM (inactive) | > 100 µM (inactive) | > 100 µM (inactive) | > 100 µM (inactive) | 29.4 µM (inactive) | > 100 µM (inactive) |
| O=C1C2=C(c3ccccc31)C(c1ccccc1)N1C(=O)CSC1=N2 (centres undefined) | 37.8 µM (inactive) | 56.9 µM (inactive) | > 85.5 µM (inactive) | 35.6 µM (inactive) | 36.9 µM (inactive) | 38.5 µM (inactive) | 40.3 | 17 µM (inactive) | 17.4 µM (inactive) | 29.4 µM (inactive) | 35.3 µM (inactive) | 49.8 µM (inactive) | 48.4 µM (inactive) | 58.1 µM (inactive) | > 68.1 µM (inactive) | > 75.3 µM (inactive) | 37.2 µM (inactive) | > 70.6 µM (inactive) | > 63 µM (inactive) | 37.3 µM (inactive) |
| CCOc1cc(/C=C2\N=C(c3ccccc3)N(c3nc4ccccc4s3)C2=O)ccc1O |  | 21.6 µM (inactive) | > 100 µM (inactive) | 29 µM (inactive) | 18.5 µM (inactive) | 59.8 µM (inactive) | 24.5 | 31.3 µM (inactive) | 40.1 µM (inactive) | 23.7 µM (inactive) | 48.3 µM (inactive) | 39.9 µM (inactive) | 34.3 µM (inactive) | 42 µM (inactive) | 25.1 µM (inactive) | 56.9 µM (inactive) | 27.9 µM (inactive) | > 100 µM (inactive) | 47.9 µM (inactive) | 37.2 µM (inactive) |
